{"source": "patent US20080085874A1", "about": "“SMALL MOLECULE POTENTIATOR OF HORMONAL THERAPY FOR BREAST CANCER” (The Regents of the University of California, priority 2006, published 2008)", "key": {"MCF-7aro cells": {"test_system": "MCF-7aro cells", "experiment": "Cell proliferation assay in MCF-7 cells with stably expressed aromatase", "format": "cell-based, human", "settings": "5 days", "excerpt": "(§1) Cell Culture and Ligands. MCF-7 cells were provided by C. Walker (MD Anderson Cancer Center, Houston, Tex.) and were routinely cultured in IMEM (Invitrogen, Grand Island, N.Y.) with 10% fetal calf serum (FBS) (Hyclone, Logan, Utah). Ishikawa cells were also provided by C. Walker and cultured in DMEM/Ham's F12 with 10% FBS. T47-D cells were obtained from ATCC and were routinely cultured in DMBM (Invitrogen) plus 10% FBS. ZR-75-1 cells were provided by B. Hahn (University of California, San Francisco) and were routinely cultured in RPMI (Invitrogen) plus 10% PBS. MCF-7/neo and MCF-7/HER2 (clone 18) cells were also obtained from B. Hahn and cultured in DMEM plus 10% FBS. MCF-7aro cells were provided by S. Chen (Beckham Research Institute of the City of Hope) and routinely grown in DMEM/Ham's F12 plus 10% FBS. For all experiments cells were switched to phenol red-free media containing 5% charcoal/dextran-stripped FBS (Hyclone) for 3-5 days prior to start of the experiment. […]\n(§2) Cell Proliferation Assays. […] Cells were trypsinized and counted electronically with a Coulter Counter (Coulter Electronics, Hialeah, Fla.). Alternatively, cell proliferation was measured using a fluorescent DNA-binding assay, CyQUANT (Invitrogen) in which cells were treated with ligands in triplicate in 96-well plates for the indicated times and assayed according to the manufacturer's instructions."}, "MCF-7 cells [1]": {"test_system": "MCF-7 cells", "experiment": "Cell proliferation assay (Coulter Counter or CyQUANT fluorescent DNA-binding assay) in MCF-7 cells", "format": "cell-based, human", "settings": "for E2-stimulated growth, antiestrogen alone / E2-stimulated growth, antiestrogen plus VPA: 100 pM E2, 7 days, fulvestrant at higher concentrations; for E2-stimulated growth, antiestrogen plus VPA: plus 750 μM VPA; for effect of HDAC inhibitor on antiproliferative action of tamoxifen: range of HDAC inhibitor doses with 10 nM OH-Tam", "excerpt": "(§3) Cell Culture and Ligands. MCF-7 cells were provided by C. Walker (MD Anderson Cancer Center, Houston, Tex.) and were routinely cultured in IMEM (Invitrogen, Grand Island, N.Y.) with 10% fetal calf serum (FBS) (Hyclone, Logan, Utah). Ishikawa cells were also provided by C. Walker and cultured in DMEM/Ham's F12 with 10% FBS. T47-D cells were obtained from ATCC and were routinely cultured in DMBM (Invitrogen) plus 10% FBS. ZR-75-1 cells were provided by B. Hahn (University of California, San Francisco) and were routinely cultured in RPMI (Invitrogen) plus 10% PBS. MCF-7/neo and MCF-7/HER2 (clone 18) cells were also obtained from B. Hahn and cultured in DMEM plus 10% FBS. MCF-7aro cells were provided by S. Chen (Beckham Research Institute of the City of Hope) and routinely grown in DMEM/Ham's F12 plus 10% FBS. For all experiments cells were switched to phenol red-free media containing 5% charcoal/dextran-stripped FBS (Hyclone) for 3-5 days prior to start of the experiment. Cells were treated with ligands in media containing 2-5% stripped PBS for the indicated times.\n(§4) Cell Proliferation Assays. Cells growing in 24-well dishes were treated with ligands in triplicate for the indicated times. Cells were trypsinized and counted electronically with a Coulter Counter (Coulter Electronics, Hialeah, Fla.). Alternatively, cell proliferation was measured using a fluorescent DNA-binding assay, CyQUANT (Invitrogen) in which cells were treated with ligands in triplicate in 96-well plates for the indicated times and assayed according to the manufacturer's instructions."}, "[2]": {"test_system": "endogenous ERα at estrogen response element (ERE)", "experiment": "ERE-Luc luciferase reporter gene transfection assay", "settings": "for ERE-Luc transcription: 24 hours", "description": "MCF-7 cells growing in 12-well dishes were transfected with ERE-Luc and β-galactosidase reporter gene using Lipofectamine 2000 transfection reagent (Invitrogen) according to manufacturer's instructions. […] Five hours after transfection, cells were treated in triplicate with ligands and harvested 24 hours later using a lysis buffer containing 100 MM TrisHCl, 1% Triton-X100 and 1.μ/ml dithiothreitol. Reporter gene activity was measured using assay kits for Luciferase (Promega, Madison, Wis.) and β-galactosidase (Tropix, Bedford, Mass.), according to manufacturer's instructions."}, "[3]": {"test_system": "Ishikawa endometrial adenocarcinoma cells", "experiment": "Cell proliferation assay in endometrial cells", "format": "cell-based", "settings": "7 days, 750 μM VPA; for cell numbers / proliferation: 10 nM OH-Tam, 100 pM or 1 nM E2", "excerpt": "as §3, §4"}, "Bcl-2": {"test_system": "Bcl-2", "experiment": "Immunoblotting of Bcl-2 protein in MCF-7 cells", "format": "cell-based, human", "settings": "72 hours", "procedure": "(§5) Immunoblotting. MCF-7 cells were grown in 100 mm dishes and treated with ligands in triplicate. […] Whole cell extracts were separated by SDS-PAGE, transferred to a nitrocellulose membrane, and immunoblotted using standard methods with the following antibodies: ERα, Bik, Bcl-2, and β-tubulin (all from Santa Cruz Biotechnology, Santa Cruz, Calif.) and cyclin D1 (Zymed, San Francisco, Calif.)."}, "MCF-7 cells [4]": {"test_system": "MCF-7 cells", "experiment": "Annexin V apoptosis assay", "format": "cell-based, human", "settings": "72 hours, absence of E2", "procedure": "Apoptosis. MCF-7 cells growing on coverslips were treated with ligands for 72 hours and unfixed cells were assayed with the Annexin-V-FLOUS Staining kit (Roche), according to manufacturer's instructions. Total cell number was determined by counting nuclei stained with Hoescht 33342 (Roche). Fluorescence was analyzed using a Zeiss Axioplan fluorescent microscope (Zeiss, Thomwood, N.Y.)."}, "MCF-7 cells [5]": {"test_system": "MCF-7 cells", "experiment": "Flow cytometry cell cycle distribution (DNA content)", "format": "cell-based, human", "settings": "48 hours", "procedure": "Flow cytometry. MCF-7 cells growing in 100 mm dishes were treated with ligands for 48 hours, then trypsinized and fixed in 70% ethanol and stained with […] propidium iodide (Roche, Nutley, N.J.). DNA content was obtained by measuring 10,000 events on a FACScalibur flow cytometer (BD Biosciences, San Jose, Calif.). The percentages of cells in each phase of the cell cycle were determined using the Watson (Pragmatic) model analyzed by FlowJo flow cytometry software (Treestar, San Carlos, Calif.)."}, "ERα": {"test_system": "ERα", "experiment": "Immunoblotting of ERα protein in MCF-7 cells", "format": "cell-based, human", "settings": "72 hours", "procedure": "as §5\n(§6) Changes in protein expression from endogenous genes in MCF-7 cells treated for 72 hours with ligands was also evaluated."}, "MCF-7/HER2 cells": {"test_system": "MCF-7/HER2 cells", "experiment": "Cell proliferation assay in MCF-7 cells overexpressing HER2/neu", "format": "cell-based, human", "settings": "10 pM E2, 750 μM VPA and/or 10 nM OH-Tam, 7 days", "excerpt": "as §1, §2"}, "cyclin D1": {"test_system": "cyclin D1", "experiment": "Immunoblotting of cyclin D1 protein in MCF-7 cells", "format": "cell-based, human", "settings": "72 hours", "procedure": "as §5, §6"}, "MCF-7 cells [6]": {"test_system": "MCF-7 cells", "experiment": "Phase microscopy of cell number and morphology", "format": "cell-based, human", "settings": "6 days, 100 pM E2, 750 μM VPA, 10 nM OH-Tam"}}, "note": "pIC50: −log10 of the molar value. Where a name gives a salt, the structure may show the parent alone. Read-outs that look alike come from different tables or passages of the source.", "data": [{"smiles": "N#Cc1ccc(C(c2ccc(C#N)cc2)n2cncn2)cc1", "note": "[letrozole]", "values": [{"measurement": "testosterone-induced proliferation", "setting": "MCF-7aro cells; 1 nM testosterone", "value": "inhibited testosterone-induced proliferation in a dose responsive manner"}]}, {"smiles": "O=C(c1ccc(OCCN2CCCCC2)cc1)c1c(-c2ccc(O)cc2)sc2cc(O)ccc12", "note": "[Raloxifene, raloxifene]", "values": [{"measurement": "E2-stimulated growth, antiestrogen alone", "setting": "MCF-7 cells [1]", "value": "substantially decreased E2-stimulated growth"}, {"measurement": "E2-stimulated growth, antiestrogen plus VPA", "setting": "MCF-7 cells [1]", "value": "VPA further enhanced its inhibitory effect"}]}, {"smiles": "CC(/C=C/C(=O)NO)=C\\[C@@H](C)C(=O)c1ccc(N(C)C)cc1", "note": "[TSA, trichostatin A]", "values": [{"measurement": "pIC50", "setting": "MCF-7 cells [1]; 100 pM E2, day 7, read-out: IC50 (cell proliferation), HDAC inhibitor alone", "value": 7.29}, {"measurement": "effect of HDAC inhibitor on antiproliferative action of tamoxifen", "setting": "MCF-7 cells [1]; 100 pM E2, day 7", "value": "enhanced the antiproliferative action of tamoxifen"}, {"measurement": "pIC50", "setting": "MCF-7 cells [1]; read-out: IC50 (cell proliferation), co-treatment with tamoxifen, with 10 nM OH-Tam, 100 pM E2, day 7", "value": 7.49}, {"measurement": "ERE-Luc transcription", "setting": "[2]; high concentrations, alone", "value": "induced transcription"}]}, {"smiles": "C[C@]12CC[C@@H]3c4ccc(O)cc4CC[C@H]3[C@@H]1CC[C@@H]2O", "note": "[E2, 17β-estradiol]", "values": [{"measurement": "cell numbers / proliferation", "setting": "[3]", "value": "increase was observed in cell numbers"}, {"measurement": "stimulation of ERE-Luc transcription", "setting": "[2]; 100 pM E2, 24 hours", "value": "approximately 13 fold"}, {"measurement": "Bcl-2 protein expression", "setting": "Bcl-2", "value": "upregulated"}]}, {"smiles": "NC(=O)N1c2ccccc2C=Cc2ccccc21", "note": "[carbamazepine]", "values": [{"measurement": "slowing of breast cancer cell growth in combination", "setting": "MCF-7 cells [1]; carbamazepine 50 μM with rapamycin 2 nM, picropodophyllin 100 nM, tamoxifen 10 nM", "value": "combines effectively"}]}, {"smiles": "C[C@]12CC[C@@H]3c4ccc(O)cc4C[C@@H](CCCCCCCCC[S+]([O-])CCCC(F)(F)C(F)(F)F)[C@H]3[C@@H]1CC[C@@H]2O", "note": "(stereo partly drawn) [fulvestrant, Fulvestrant]", "values": [{"measurement": "E2-stimulated growth, antiestrogen alone", "setting": "MCF-7 cells [1]", "value": "decreased E2-induced proliferation"}, {"measurement": "E2-stimulated growth, sub-saturating fulvestrant plus VPA", "setting": "MCF-7 cells [1]; fulvestrant 1 to 5 nM plus VPA", "value": "VPA enhanced the anti-proliferative effect of lower doses of fulvestrant in a dose responsive manner"}, {"measurement": "E2-stimulated growth, antiestrogen plus VPA", "setting": "MCF-7 cells [1]", "value": "VPA did not further add to its inhibitory effect"}]}, {"smiles": "CCCC(CCC)C(=O)O", "note": "[VPA, valproic acid sodium salt (sodium 2-propylpentanoate)]", "values": [{"measurement": "E2-induced cell proliferation", "setting": "MCF-7 cells [1]; 750 μM VPA, 10 nM OH-Tam, 6-7 days, counted electronically", "value": "inhibition by VPA was even more dramatic"}, {"measurement": "effect of VPA on tamoxifen inhibition of cell proliferation", "setting": "MCF-7 cells [1]; 750 μM VPA, OH-Tam 0 to 500 nM, 100 pM E2, day 6", "value": "enhanced the relative efficacy of tamoxifen at all doses tested"}, {"measurement": "cell proliferation", "setting": "MCF-7 cells [1]; 750 μM VPA, without E2, 6-7 days, counted electronically", "value": "inhibited MCF 7 cells"}, {"measurement": "inhibition at 750 µM", "setting": "MCF-7 cells [1]; Homo sapiens, MCF7, 144 h, 750 μM VPA alone, 100 pM E2, day 6, fluorescent DNA-binding assay, read-out: inhibition of E2-stimulated cell proliferation", "value": 25, "unit": "%"}, {"measurement": "pIC50", "setting": "MCF-7 cells [1]; Homo sapiens, MCF7, 168 h, 100 pM E2, day 7, doses of VPA ranging from 50 μM to 5 M, read-out: IC50 (cell proliferation), HDAC inhibitor alone", "value": 3.10}, {"measurement": "pIC50", "setting": "MCF-7 cells [1]; Homo sapiens, MCF7, 168 h, read-out: IC50 (cell proliferation), tamoxifen co-treatment, with 10 nM OH-Tam, 100 pM E2, day 7", "value": 3.30}, {"measurement": "slowing of breast cancer cell growth in combination", "setting": "MCF-7 cells [1]; VPA 750 μM with rapamycin 0.05 nM, picropodophyllin 100 nM, tamoxifen 100 nM", "value": "combines effectively"}, {"measurement": "slowing of breast cancer cell growth in combination", "setting": "MCF-7 cells [1]; VPA 750 μM with rapamycin […], gefitinib 1 μM, with and without tamoxifen 100 nM", "value": "combines effectively"}, {"measurement": "effect of HDAC inhibitor on antiproliferative action of tamoxifen", "setting": "MCF-7 cells [1]; 100 pM E2, day 7", "value": "enhanced the action of tamoxifen"}, {"measurement": "AnnexinV positive cells (apoptotic index), % of total cell population", "setting": "MCF-7 cells [4]", "value": "approximately 1.37%"}, {"measurement": "addition of VPA to tamoxifen on E2-induced cell cycle progression", "setting": "MCF-7 cells [5]; E2 present", "value": "did not yield a detectable change"}, {"measurement": "cell cycle distribution", "setting": "MCF-7 cells [5]; E2 present", "value": "had no effect"}, {"measurement": "cell cycle distribution", "setting": "MCF-7 cells [5]; absence of E2", "value": "induced a small arrest in the G1 phase"}, {"measurement": "effect of VPA on E2- and tamoxifen-induced proliferation", "setting": "[3]", "value": "equally antagonized the proliferative effect of E2 and tamoxifen"}, {"measurement": "cell numbers / proliferation", "setting": "[3]", "value": "dramatically inhibited proliferation"}, {"measurement": "ERα protein expression", "setting": "ERα; only observed in the absence of E2", "value": "slightly downregulated ERα protein expression"}, {"measurement": "increased ERα expression seen with tamoxifen treatment", "setting": "ERα; VPA with tamoxifen, absence of E2", "value": "attenuated the increased ERα expression"}, {"measurement": "testosterone-induced proliferation, VPA with letrozole", "setting": "MCF-7aro cells; 750 μM VPA, regardless of the letrozole dose tested", "value": "inhibited proliferation more than that observed with letrozole alone"}, {"measurement": "cell proliferation", "setting": "MCF-7/HER2 cells", "value": "inhibited by VPA"}, {"measurement": "cyclin D1 expression", "setting": "cyclin D1", "value": "did not alter cyclin D1 expression"}, {"measurement": "ERE-Luc transcription", "setting": "[2]; 750 μM VPA, alone or with 10 nM OH-Tam", "value": "unable to activate transcription alone or in the presence of tamoxifen"}, {"measurement": "ERE-Luc transcription", "setting": "[2]; high concentrations, alone", "value": "induced transcription"}, {"measurement": "E2-induced ERE-Luc transcriptional activity", "setting": "[2]; high dose of VPA alone, in the presence of E2", "value": "inhibited E2-induced transcriptional activity"}, {"measurement": "Bcl-2 protein expression", "setting": "Bcl-2", "value": "did not have any effect on Bcl-2 expression either alone or with tamoxifen"}, {"measurement": "cell number and morphology by phase microscopy", "setting": "MCF-7 cells [6]", "value": "fewer cells as well as an increased number of floating cells"}]}]}
